Measured values reported in patent US20250074911A1, “MACROCYCLIC BTK INHIBITORS” (Crossfire Oncology Holding B.V., priority 2021, published 2025).

What was measured:
REC-1 T474I cell lines = experiment: Cell proliferation assay REC-1 BTK T474I knock-in cells (ATPlite, 72 hours); type: cell-based; conditions: Homo sapiens, Rec1; 72 hours; read-out: IC50 REC-1 T474I
Outline: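 REC-1 cells carrying CRISPR knock-in mutant BTK, single-cell cloned and sequence-confirmed, were exposed to compound for 72 h and read by ATPlite luminescence. Percentage growth was calculated against the signal at the start of incubation and against untreated 0.3% DMSO wells as maximum growth.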

[1] = test system: wt-REC-1 mantle cell lymphoma cells; experiment: Cell proliferation assay wt-REC-1 (ATPlite, 72 hours); type: cell-based; conditions: 72 h; read-out: IC50 wt-REC-1
Outline: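 Luminescent viability read over 72 h, start-of-incubation signal recorded separately to separate growth from cell death. Percentage growth referenced to compound-free 0.3% DMSO wells; IC50 from 4-parameter logistic fit.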

[2] = molecular target: full-length BTK C481S enzyme (Homo sapiens (Human), UniProt Q06187, C481S); experiment: Biochemical kinase assay BTK C481S (IMAP)
Sequence of full-length BTK C481S enzyme (Q06187 whole entry C481S): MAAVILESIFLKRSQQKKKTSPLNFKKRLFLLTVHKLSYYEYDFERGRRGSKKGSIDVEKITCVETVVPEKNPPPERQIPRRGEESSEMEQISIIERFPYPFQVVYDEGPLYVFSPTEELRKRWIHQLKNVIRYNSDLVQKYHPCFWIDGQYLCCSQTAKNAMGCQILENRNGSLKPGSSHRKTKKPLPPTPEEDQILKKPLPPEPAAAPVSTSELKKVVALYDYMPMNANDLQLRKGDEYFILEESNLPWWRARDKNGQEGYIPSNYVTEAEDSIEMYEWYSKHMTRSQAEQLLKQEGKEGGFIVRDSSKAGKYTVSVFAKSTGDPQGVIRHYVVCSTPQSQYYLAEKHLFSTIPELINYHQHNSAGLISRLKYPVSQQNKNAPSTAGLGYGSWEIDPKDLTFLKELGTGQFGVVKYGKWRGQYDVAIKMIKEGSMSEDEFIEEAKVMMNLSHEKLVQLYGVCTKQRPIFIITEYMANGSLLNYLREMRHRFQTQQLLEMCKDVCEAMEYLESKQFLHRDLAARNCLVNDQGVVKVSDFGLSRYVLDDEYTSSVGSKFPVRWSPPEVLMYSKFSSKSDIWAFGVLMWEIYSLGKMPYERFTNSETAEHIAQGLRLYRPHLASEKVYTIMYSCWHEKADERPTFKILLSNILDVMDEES
Outline: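 Full-length BTK C481S (1.2 nM) was pre-incubated with compound for 1 h at room temperature in the dark, then reacted with fluorescein-labelled MBP-derived peptide (50 nM) and ATP (7 μM) for 2 h. Reactions were quenched with IMAP binding solution, and IC50 values were derived from fluorescence polarization.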

BTK T474I = BTK T474I (Homo sapiens (Human), UniProt Q06187, T474I); experiment: Binding kinetics measurements (Surface Plasmon Resonance) on BTK T474I; conditions: for Tau (h) BTK T474I (Act): target residence time, SPR; for Kd: binding affinity by Surface Plasmon Resonance (SPR)
Sequence of BTK T474I (Q06187 whole entry T474I): as the sequence (Q06187 whole entry C481S) above, with T474I, S481C counted along it
Outline: (§1)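 SPR, single cycle kinetics: 5 injections, 3.16-316 nM, 30 μl/min (avoids mass transport limitation), 22° C, 1% DMSO buffer. Protein immobilized at 4° C on streptavidin chip, biocytin block. Blank run first; reference channel and buffer curves subtracted.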

BTK C481S = BTK C481S (Homo sapiens (Human), UniProt Q06187, C481S); experiment: Binding kinetics measurements (Surface Plasmon Resonance) on BTK C481S; conditions: for Kd: binding affinity by Surface Plasmon Resonance (SPR); for Tau (h) BTK C418S (Act): target residence time for BTK C481S, SPR
Sequence of BTK C481S (Q06187 whole entry C481S): as the sequence (Q06187 whole entry C481S) above
Outline: as §1

wt-BTK = wt-BTK (Homo sapiens (Human), UniProt Q06187); experiment: Binding kinetics measurements (Surface Plasmon Resonance) on wt-BTK; conditions: for Tau (h) wt-BTK (Act): target residence time, SPR; for Kd: binding affinity by Surface Plasmon Resonance (SPR)
Sequence of wt-BTK (Q06187 whole entry): as the sequence (Q06187 whole entry C481S) above, with S481C counted along it
Outline: as §1

[3] = molecular target: full-length wt-BTK enzyme (Homo sapiens (Human), UniProt Q06187); experiment: Biochemical kinase assay wt-BTK (IMAP)
Sequence of full-length wt-BTK enzyme (Q06187 whole entry): as the sequence (Q06187 whole entry C481S) above, with S481C counted along it
Outline: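 IMAP fluorescence polarization assay: 1.2 nM enzyme pre-incubated 1 h with compound at room temperature, then 50 nM fluorescein-labeled MBP-derived peptide and 4 μM ATP added. Reaction ran 2 h at room temperature in the dark before quenching with IMAP binding solution.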

IC50 [1] [nM]	IC50 [2] [nM]	Tau (h) BTK T474I (Act) (BTK T474I) [h]	Kd (BTK C481S) [nM]	Tau (h) wt-BTK (Act) (wt-BTK) [h]	IC50 [3] [nM]	Kd (BTK T474I) [nM]	Tau (h) BTK C418S (Act) (BTK C481S) [h]	Kd (wt-BTK) [nM]	Structure (SMILES)	IC50 (REC-1 T474I cell lines) [nM]
< 100	< 5	0.90	< 5	5.64	< 5	–	–	–	N#Cc1ccnc(NC(=O)c2ccc(-c3nc4n5c(cnc(N)c35)/C=C/CCCCCC(=O)N[C@@H]3CC[C@@H]4C3)cc2)c1 [Example 204]	< 100
< 100	< 5	3.02	< 5	9.45	< 5	< 2	12.17	< 5	Nc1ncc2c3c1c(-c1ccc(C(=O)Nc4cc(C(F)(F)F)ccn4)cc1)nn3[C@@H]1CCC[C@H](C1)NC(=O)CCOC/C=C/2 [Example 25]	< 100
< 100	< 5	1.15	–	10.14	< 5	–	1.91	–	N#Cc1ccnc(NC(=O)c2ccc(-c3nc4n5c(cnc(N)c35)/C=C/CCOCCC(=O)N[C@@H]3CC[C@@H]4C3)cc2)c1 [Example 201]	< 100
< 100	< 5	0.85	< 5	5.55	< 5	–	2.43	–	N#Cc1ccnc(NC(=O)c2ccc(-c3nc4n5c(cnc(N)c35)/C=C/CCCCCC(=O)N[C@@H]3CCC[C@@H]4C3)cc2)c1 [Example 184]	< 100
< 100	< 5	2.64	< 5	4.42	< 5	< 2	3.17	< 5	C[C@@H]1CC(=O)N[C@@H]2CCC[C@H](C2)n2nc(-c3ccc(C(=O)Nc4cc(C(F)(F)F)ccn4)cc3)c3c(N)ncc(c32)/C=C/CCN1 [Example 45]	< 100
